This assay has as its system primary brown preadipocytes. Kind of assay: Differentiation of primary brown preadipocytes (Oil Red O). It counts as cell-based, mice. An excerpt:
To assess differentiation of primary brown adipocytes, iBAT preadipocytes were isolated from 1-day-old mice and then differentiated in the presence of OX. Differentiation was confirmed by Oil Red O staining which visualizes lipid accumulation (FIG. 7). […] Taken together. OX activates a full program of brown fat adipogenesis by suppressing adipogenic inhibitors, including BAT regulators, elevating mitochondrial biogenesis and oxygen consumption, and inducing uncoupled respiration.
To investigate whether lack of OXR1 impaired BAT differentiation potential, primary brown preadipocytes from OXR1 knockout mice were isolated and differentiated. Generation of wild-type primary brown preadipocyte cell lines was derived from newborn wild-type mice as described previously by Klein et al. (Bioessays, 24: 382-388, 2002), which is hereby incorporated by reference in its entirety. Brown preadipocytes isolated from C57BL-6 mice served as positive control. All cell lines were maintained in Dulbecco's modified […] medium (DMEM), high glucose, supplemented with 10% FBS at 37° C. in a 5% CO2 environment. To induce adipogenesis, the cells were treated for 3 days with either BMP7 or 100 nM OX, at which time they were confluent. Cells were then incubated in adipogenic medium containing 0.125 mM indomethaein, […] dexamethazone, and […] 3-isobutyl-1-methyxanthine (IBMX) supplemented by 20 nM insulin as described by Tseng et al., (Nature, 454: 1000-1004, 2008) which is hereby incorporated by reference in its entirety.

For “orexin-A (EPLPDCCRQKTCSCRLYELLHGAGNHAAGILTL) [OX, human orexin A, cat; No. 24470, Anaspec]”, the “differentiation of wild-type preadipocytes based on lipid accumulation” value (3 days BMP7 or 100 nM OX, then adipogenic medium) is reported as “enhanced differentiation”. Also, the “adipogenesis of iBAT preadipocytes from 1-day-old mice” value (differentiated in the presence of OX) is listed as “robust adipogenesis within 7 days”. Besides, the “differentiation of brown preadipocytes from OXR1-null mice” value (in the presence of OX) is reported as “little differentiation capacity”.

For the origin of these results see US20120190615A1, “METHODS AND COMPOSITIONS FOR INDUCING WEIGHT LOSS” (Sanford-Burnham Medical Research Institute, priority 2011, published 2012).
